Laboratory results published in patent US20240246940A1, “HETEROARYL DERIVATIVE COMPOUND AND USE THEREOF” (VORONOI INC., priority 2021, published 2024).
Where two headings read alike, the source gives them in different places.

Tests used:
[1] = tested on: HaCaT cells (EGFR expressing cell line); assay: HaCaT cell proliferation inhibitory activity (CellTiter-Glo, 72 hours); assay type: cell-based
Outline: (§1)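 GI50 derived from % growth versus control from CellTiter-Glo luminescence, each test run three times. SK-BR-3 and BT-474 are seeded 48 h ahead at 5000/well and dosed at 0.2 nM–10 μM. N-87 (5000/well) gets […]–5 μM and HaCaT (3000/well) gets 0.8 nM–45 μM, both seeded 24 h ahead.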

[2] = tested on: SK-BR-3 cells (HER2 overexpressing cell line); assay: SK-BR-3 cell proliferation inhibitory activity (CellTiter-Glo, 120 hours); assay type: cell-based
Outline: as §1

GI50 ([2]; Homo sapiens) | GI50 [2] | Compound | GI50 ([1]; Homo sapiens) | GI50 [1]
150 to 1000 nM |  | C=CC(=O)N1CC(Oc2cc3c(Nc4cc(-c5cccc(NC(=O)C6CC6)c5)ccc4OC)ncnc3cc2OC)C1 [Example 227, N-(3′-((6-((1-acryloylazetidin-3-yl)oxy)-7-methoxy-quinazolin-4-yl)amino)-4′-methoxy-[1,1′-biphenyl]-3-yl)cyclopropan-carboxamide] | > 1000 nM | 
150 to 1000 nM |  | C=CC(=O)N1CCC(Oc2cc3c(Nc4cc(-c5cccc(C#N)c5F)ccc4OC)ncnc3cc2OC)CC1 [Example 134, 3′-((6-((1-acryloyl-piperidin-4-yl)oxy)-7-methoxy-quinazolin-4-yl)amino)-2-fluoro-4′-methoxy-[1,1′-biphenyl]-3-carbonitrile] | 150 to 1000 nM | 
≤ 150 nM |  | C=CC(=O)N1CC(Oc2cc3c(Nc4cc(-c5cccc(Cl)c5F)ccc4OC)ncnc3cc2OC)C1 [Example 20, 1-(3-((4-((3′-chloro-2′-fluoro-4-methoxy-[1,1′-biphenyl]-3-yl)amino)-7-methoxy-quinazolin-6-yl)oxy)azetidin-1-yl)prop-2-en-1-one] | ≤ 150 nM | 
150 to 1000 nM |  | C=CC(=O)N1CCC(Oc2cc3c(Nc4cc(-c5cccs5)ccc4OC4CCOCC4)ncnc3cc2OC)CC1 [Example 257, 1-(4-((7-methoxy-4-((2-((tetrahydro-2H-pyran-4-yl)oxy)-5-(thiophen-2-yl)phenyl)amino)quinazolin-6-yl)oxy)piperidin-1-yl)prop-2-en-1-one] | ≤ 150 nM | 
> 1000 nM |  | C=CC(=O)N1CCC(F)(F)C(Oc2cc3c(Nc4cc(-c5ccc(F)cc5F)ccc4OC)ncnc3cc2OC)C1 (stereo not drawn) [Example 141, 1-(3-((4-((2′,4′-difluoro-4-methoxy-[1,1′-biphenyl]-3-yl)amino)-7-methoxy-quinazolin-6-yl)oxy)-4,4-difluoro-piperidin-1-yl)prop-2-en-1-one] | 150 to 1000 nM | 
150 to 1000 nM |  | C=CC(=O)N1CC(Oc2cc3c(Nc4cc(-c5cnc(Cl)c(F)c5)ccc4OC)ncnc3cc2OC)C1 [Example 27, 1-(3-((4-((5-(6-chloro-5-fluoropyridin-3-yl)-2-methoxyphenyl)amino)-7-methoxy-quinazolin-6-yl)oxy)azetidin-1-yl)prop-2-en-1-one] | 150 to 1000 nM | 
> 1000 nM |  | C=CC(=O)N1CC(Oc2cc3c(Nc4cc(-c5ccc6ccn(C)c6c5)ccc4OC)ncnc3cc2OC)C1 [Example 34, 1-(3-((7-methoxy-4-((2-methoxy-5-(1-methyl-1H-indol-6-yl)phenyl)amino)quinazolin-6-yl)oxy)azetidin-1-yl)prop-2-en-1-one] | 150 to 1000 nM | 
≤ 150 nM |  | C=CC(=O)N1CCC(Nc2cc3c(Nc4cc(-c5ccco5)ccc4OC)ncnc3cc2OCCOC)CC1 [Example 262, 1-(4-((4-((5-(furan-2-yl)-2-methoxyphenyl)amino)-7-(2-methoxyethoxy)quinazolin-6-yl)amino)piperidin-1-yl)prop-2-en-1-one] | ≤ 150 nM | 
150 to 1000 nM |  | C=CC(=O)N1CC(Oc2cc3c(Nc4cc(-c5cccc(C(F)(F)F)c5)ccc4OC)ncnc3cc2OC)C1 [Example 9, 1-(3-((7-methoxy-4-((4-methoxy-3′-(trifluoromethyl)-[1,1′-biphenyl]-3-yl)amino)quinazolin-6-yl)oxy)azetidin-1-yl)prop-2-en-1-one] | 150 to 1000 nM | 
≤ 150 nM |  | C=CC(=O)N1CCC(Oc2cc3c(Nc4cc(-c5ccco5)ccc4OC)ncnc3cc2OC)C(C)C1 (stereo not drawn) [Example 148, 1-(4-((4-((5-(furan-2-yl)-2-methoxyphenyl)amino)-7-methoxy-quinazolin-6-yl)oxy)-3-methylpiperidin-1-yl)prop-2-en-1-one] | ≤ 150 nM | 
≤ 150 nM |  | C=CC(=O)N1CC(Oc2cc3c(Nc4cc(-c5cccn6ccnc56)ccc4OC)ncnc3cc2OC)C1 [Example 35, 1-(3-((4-((5-(imidazo[1,2-a]pyridin-8-yl)-2-methoxyphenyl)amino)-7-methoxy-quinazolin-6-yl)oxy)azetidin-1-yl)prop-2-en-1-one] | 150 to 1000 nM | 
> 1000 nM |  | C=CC(=O)N1CCCC(Oc2cc3c(Nc4cc(-c5ccco5)ccc4OC)ncnc3cc2OC)C1 (stereo not drawn) [Example 162, 1-(3-((4-((5-(furan-2-yl)-2-methoxyphenyl)amino)-7-methoxy-quinazolin-6-yl)oxy)piperidin-1-yl)prop-2-en-1-one] | 150 to 1000 nM | 
≤ 150 nM |  | C=CC(=O)N1CCC(Oc2cc3c(Nc4cc(-c5sccc5C)ccc4OC)ncnc3cc2OC)CC1 [Example 82, 1-(4-((7-methoxy-4-((2-methoxy-5-(3-methylthiophen-2-yl)phenyl)amino)quinazolin-6-yl)oxy)piperidin-1-yl)prop-2-en-1-one] | ≤ 150 nM | 
150 to 1000 nM |  | COc1ccc(-c2cccs2)cc1Nc1ncnc2cc(OC)c(OC3CCN(C(=O)/C=C/CN(C)C)CC3)cc12 [Example 119, (E)-4-(dimethylamino) 1-(4-((7-methoxy-4-((2-methoxy-5-(thiophen-2-yl)phenyl)amino)quinazolin-6-yl)oxy)piperidin-1-yl)but-2-en-1-one] | ≤ 150 nM | 
> 1000 nM |  | C=CC(=O)N1CC[C@H](Oc2cc3c(Nc4cc(-c5ccco5)ccc4OC)ncnc3cc2OC)C1 [Example 132, (S)-1-(3-((4-((5-(furan-2-yl)-2-methoxyphenyl)amino)-7-methoxy-quinazolin-6-yl)oxy)pyrrolidin-1-yl)prop-2-en-1-one] | 150 to 1000 nM | 
> 1000 nM |  | C=C(CN(C)C)C(=O)N1CCC(Oc2cc3c(Nc4cc(-c5ccco5)ccc4OC)ncnc3cc2OC)CC1 [Example 121, 2-((dimethylamino)methyl)-1-(4-((4-((5-(furan-2-yl)-2-methoxyphenyl)amino)-7-methoxy-quinazolin-6-yl)oxy)piperidin-1-yl)prop-2-en-1-one] | ≤ 150 nM | 
> 1000 nM |  | C=CC(=O)N1CCC(Oc2cc3c(Nc4cc(-c5ccc(F)cc5F)ccc4OC)ncnc3cc2OC)CC1C(F)(F)F (stereo not drawn) [Example 165, 1-(4-((4-((2′,4′-difluoro-4-methoxy-[1,1′-biphenyl]-3-yl)amino)-7-methoxy-quinazolin-6-yl)oxy)-2-(trifluoromethyl)piperidin-1-yl)prop-2-en-1-one] | 150 to 1000 nM | 
150 to 1000 nM |  | C=CC(=O)N1CC(Oc2cc3c(Nc4cc(-c5cccc6ncnn56)ccc4OC)ncnc3cc2OC)C1 [Example 128, 1-(3-((4-((5-([1,2,4]triazolo[1,5-a]pyridin-5-yl)-2-methoxyphenyl)amino)-7-methoxy-quinazolin-6-yl)oxy)azetidin-1-yl)prop-2-en-1-one] | 150 to 1000 nM | 
150 to 1000 nM |  | C=CC(=O)N1CC2CC1CC2Oc1cc2c(Nc3cc(-c4ccco4)ccc3OC)ncnc2cc1OC (stereo not drawn) [Example 115, 1-(5-((4-((5-(furan-2-yl)-2-methoxyphenyl)amino)-7-methoxy-quinazolin-6-yl)oxy)-2-azabicyclo[2. 2.1]heptan-2-yl)prop-2-en-1-one] | ≤ 150 nM | 
≤ 150 nM |  | C=CC(=O)N1CC(Oc2cc3c(Nc4cc(-c5ccco5)ccc4OC4CCN(C)C4)ncnc3cc2OC)C1 (stereo not drawn) [Example 241, 1-(3-((4-((5-(furan-2-yl)-2-((1-methylpyrrolidin-3-yl)oxy)phenyl)amino)-7-methoxyquinazolin-6-yl)oxy)azetidin-1-yl)prop-2en-1-one] | ≤ 150 nM | 
150 to 1000 nM |  | C=CC(=O)N1CCC(Oc2cc3c(Nc4cc(-c5cc(C)cs5)ccc4OC)ncnc3cc2OC)CC1 [Example 83, 1-(4-((7-methoxy-4-((2-methoxy-5-(4-methylthiophen-2-yl)phenyl)amino)quinazolin-6-yl)oxy)piperidin-1-yl)prop-2-en-1-one] | 150 to 1000 nM | 
 | 150 to 1000 nM | C=CC(=O)N1CCC(Oc2cc3c(Nc4cc(-c5ccco5)ccc4OC)ncnc3cc2OC)CC1C(F)(F)F (stereo not drawn) [Example 114, 1-(4-((4-((5-(furan-2-yl)-2-methoxyphenyl)amino)-7-methoxy-quinazolin-6-yl)oxy)-2-(trifluoro-methyl)piperidin-1-yl)prop-2-en-1-one] |  | ≤ 150 nM
≤ 150 nM |  | C=CC(=O)N1CC(Oc2cc3c(Nc4cc(-c5cccc(C#N)c5)ccc4OC)ncnc3cc2OC)C1 [Example 12, 3′-((6-((1-acryloylazetidin-3-yl)oxy)-7-methoxy-quinazolin-4-yl)amino)-4′-methoxy-[1,1′-biphenyl]-3-carbonitrile] | ≤ 150 nM | 
≤ 150 nM |  | C=CC(=O)N1CCC(Nc2cc3c(Nc4cc(-c5ccco5)ccc4OC)ncnc3cc2OCCCOC)CC1 [Example 274, 1-(4-((4-((5-(furan-2-yl)-2-methoxyphenyl)amino)-7-(3-methoxypropoxy)quinazolin-6-yl)amino)piperidin-1-yl)prop-2-en-1-one] | ≤ 150 nM | 
≤ 150 nM |  | C=CC(=O)N1CCC(Oc2cc3c(Nc4cc(-c5cccs5)ccc4OCC)ncnc3cc2OC)CC1 [Example 117, 1-(4-((4-((2-ethoxy-5-(thiophen-2-yl)phenyl)amino)-7-methoxy-quinazolin-6-yl)oxy)piperidin-1-yl)prop-2-en-1-one] | ≤ 150 nM | 
150 to 1000 nM |  | C=CC(=O)N1CCC(Oc2cc3c(Nc4cc(-c5cccn6ccnc56)ccc4OC)ncnc3cc2OC)CC1 [Example 70, 1-(4-((4-((5-(imidazo[1,2-a]pyridin-8-yl)-2-methoxyphenyl)amino)-7-methoxy-quinazolin-6-yl)oxy)piperidin-1-yl)prop-2-en-1-one] | > 1000 nM | 
≤ 150 nM |  | C=CC(=O)N1CCC(Oc2cc3c(Nc4cc(-c5cc(F)cnc5F)ccc4OC)ncnc3cc2OC)CC1 [Example 145, 1-(4-((4-((5-(2,5-difluoropyridin-3-yl)-2-methoxyphenyl)amino)-7-methoxy-quinazolin-6-yl)oxy)piperidin-1-yl)prop-2-en-1-one] | ≤ 150 nM | 
